Results from the supplement of paper PMC9912026.

Test system: A375_NRAS_Q61K_DOXind
Assay: pERK immunofluorescence relative to doxycycline-induced cells with 1 uM vemurafenib alone; higher = more ERK phosphorylation (less pathway inhibition)
Settings: drug treatment time 24 h, doxycycline 1000 ng/mL, doxycycline pre-induction time 24 h, vemurafenib background 1 µM
Summary of the method: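 A375 cells with doxycycline-inducible FLAG-tagged mutant NRAS were given doxycycline or mock for 24 h. They then received two-drug dose combinations with a third drug held at 1 uM for 24 h. Fixed cells were stained for phospho-ERK T202/Y204 and imaged at 10× on an Operetta, with FLAG-negative cells excluded. The cytosolic population mean is normalised to induced cells given the 1 uM drug alone; the value is the mean of 2 technical replicates. pERK was measured by immunofluorescence with FLAG-negative cells excluded. Averages of 2 technical replicates.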

CNc1ncc2cc(-c3cc(NC(=O)NCCC(C)(C)C)c(F)cc3C)c(C)nc2n1 + O=C(c1ccc(F)c(F)c1Nc1ccc(I)cc1F)N1CC(O)([C@@H]2CCCCN2)C1 [Cobimetinib]
pERK immunofluorescence
Settings | drug B concentration 0 µM | drug B concentration 0.0001 µM | drug B concentration 0.000316228 µM | drug B concentration 0.001 µM | drug B concentration 0.00316228 µM | drug B concentration 0.01 µM | drug B concentration 0.0316228 µM | drug B concentration 0.1 µM | drug B concentration 0.316228 µM | drug B concentration 1 µM
drug A concentration 0 µM | – | 1.08 | 1.08 | 1.06 | 1.06 | 0.844 | 0.515 | 0.168 | 0.0479 | 0.0212
drug A concentration 0.000316228 µM | 0.724 | 0.706 | 0.786 | 0.747 | 0.709 | 0.579 | 0.323 | 0.0754 | 0.026 | 0.0165
drug A concentration 0.001 µM | 0.696 | 0.745 | 0.758 | 0.771 | 0.687 | 0.45 | 0.16 | 0.0453 | 0.0201 | 0.016
drug A concentration 0.00316228 µM | 0.664 | 0.697 | 0.767 | 0.651 | 0.592 | 0.268 | 0.0865 | 0.0262 | 0.0166 | 0.0158
drug A concentration 0.01 µM | 0.583 | 0.608 | 0.593 | 0.537 | 0.359 | 0.109 | 0.0388 | 0.0196 | 0.0161 | 0.0166
drug A concentration 0.0316228 µM | 0.455 | 0.528 | 0.47 | 0.389 | 0.185 | 0.0635 | 0.0285 | 0.0172 | 0.0158 | 0.0155
drug A concentration 0.1 µM | 0.306 | 0.31 | 0.287 | 0.187 | 0.0869 | 0.0387 | 0.0223 | 0.0174 | 0.0169 | 0.0168
drug A concentration 0.316228 µM | 0.122 | 0.116 | 0.108 | 0.077 | 0.0399 | 0.0224 | 0.0172 | 0.0164 | 0.0168 | 0.017
drug A concentration 1 µM | 0.0463 | 0.045 | 0.0414 | 0.0293 | 0.0209 | 0.0181 | 0.0173 | 0.0169 | 0.0172 | 0.0172
drug A concentration 3.16228 µM | 0.0225 | 0.0225 | 0.0215 | 0.0203 | 0.0207 | 0.0173 | 0.0169 | 0.0175 | 0.0169 | 0.0164
drug A concentration 10 µM | 0.0198 | 0.0196 | 0.0203 | 0.0186 | 0.0186 | 0.02 | 0.0189 | 0.0179 | 0.0182 | 0.0184
